Measured values: patent US6737383B1, “Herbicidal oxadiazolidines” (priority 1999, dated 2004)

Assays:
[1] = test system: bedstraw; assay: Test B pre/postemergence bedstraw; assay type: in vivo, Galium aparine
Outline: (§1)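 Test chemicals in a non-phytotoxic solvent mixture with surfactant were sprayed preemergence onto planted seeds and postemergence onto plants 2 to 18 cm tall (1- to 4-leaf stage). After twelve to sixteen days in a greenhouse, injury was visually rated against untreated controls from 0 (no effect) to 10 (complete control).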

[2] = test system: blackgrass; assay: Test B pre/postemergence blackgrass; assay type: in vivo, Alopecurus myosuroides
Outline: as §1

[3] = test system: surinam grass; assay: Test B pre/postemergence surinam grass; assay type: in vivo, Brachiaria decumbens
Outline: as §1

[4] = test system: cocklebur; assay: Test B pre/postemergence cocklebur; assay type: in vivo, Xanthium strumarium
Outline: as §1

[5] = test system: corn; assay: Test B pre/postemergence corn; assay type: in vivo, Zea mays
Outline: as §1

[6] = test system: morningglory; assay: Test B pre/postemergence morningglory; assay type: in vivo, Ipomoea hederacea
Outline: as §1

[7] = test system: pigweed; assay: Test B pre/postemergence pigweed; assay type: in vivo, Amaranthus retroflexus
Outline: as §1

[8] = test system: rape; assay: Test B pre/postemergence rape; assay type: in vivo, Brassica napus
Outline: as §1

[9] = test system: velvetleaf; assay: Test B pre/postemergence velvetleaf; assay type: in vivo, Abutilon theophrasti
Outline: as §1

[10] = test system: wheat; assay: Test B pre/postemergence wheat; assay type: in vivo, Triticum aestivum
Outline: as §1

[11] = test system: wild oat; assay: Test B pre/postemergence wild oat; assay type: in vivo, Avena fatua
Outline: as §1

[12] = test system: purple nutsedge; assay: Test B pre/postemergence purple nutsedge; assay type: in vivo, Cyperus rotundus
Outline: as §1

[13] = test system: rice; assay: Test B flood test rice; assay type: in vivo, Oryza sativa
Outline: (§2)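 Read-out is a visual response score from 0 (no effect) to 10 (complete control), assigned by comparison with untreated controls. Treatment was applied at the 2-leaf stage, and plants stayed in the greenhouse for twelve to sixteen days before scoring.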

[14] = test system: smallflower flatsedge; assay: Test B flood test smallflower flatsedge; assay type: in vivo, Cyperus difformis
Outline: as §2

[15] = test system: duck salad; assay: Test B flood test duck salad; assay type: in vivo, Heteranthera limosa
Outline: as §2

[16] = test system: bamyardgrass; assay: Test B flood test barnyardgrass; assay type: in vivo, Echinochloa crus-galli
Outline: as §2

[17] = Postemergence, Rate 62 g/ha, scale 0 to 10, 0 is no effect, 10 is complete control
[18] = Postemergence, Rate 125 g/ha, scale of 0 to 10 where 0 is no effect and 10 is complete control
[19] = Postemergence, Rate 1000 g/ha, scale 0 to 10 (0 no effect, 10 complete control)
[20] = Preemergence, Rate 62 g/ha, scale 0 to 10 (0 no effect, 10 complete control)
[21] = Preemergence, Rate 125 g/ha, 0 is no effect, 10 is complete control
[22] = Preemergence, Rate 250 g/ha, scale 0 to 10, 0 is no effect, 10 is complete control
[23] = Preemergence, Rate 500 g/ha, scale 0 to 10 (0 no effect, 10 complete control)
[24] = Rate 250 g/ha, Postemergence, scale 0 to 10, 0 is no effect, 10 is complete control
[25] = Rate 1000 g/ha, Preemergence, scale 0 to 10 (0 no effect, 10 complete control)
[26] = Rate 62 g/ha, Postemergence, scale of 0 to 10 where 0 is no effect and 10 is complete control
[27] = Rate 500 g/ha, Postemergence, scale 0 to 10
[28] = Postemergence (flood test species), Rate 125 g/ha, scale of 0 to 10 where 0 is no effect and 10 is complete control
[29] = Rate 62 g/ha, Postemergence section, flood test species, scale of 0 to 10 where 0 is no effect and 10 is complete control
[30] = Rate 250 g/ha, Postemergence (flood test), scale 0 to 10, 0 is no effect, 10 is complete control
[31] = Rate 500 g/ha, listed under Postemergence (flood test species), scale 0 to 10

C=CCn1c(=O)on(C(=O)N(c2ccc(F)cc2F)C2CC2)c1=O [Compound 127]
Bedstraw plant response rating [1, 17]: 0 | Bedstraw plant response rating [1, 18]: 0 | Bedstraw plant response rating [1, 19]: 0 | Bedstraw plant response rating [1, 20]: 0 | Bedstraw plant response rating (0 to 10 scale) [1, 21]: 0 | Bedstraw plant response rating [1, 22]: 0 | Bedstraw plant response rating [1, 23]: 0 | Plant response rating, Bedstraw [1, 24]: 0 | Bedstraw plant response rating ([1]; Rate 500 g/ha, Postemergence, scale 0 to 10, 0 no effect, 10 complete control): 0 | Plant response rating, Bedstraw [1, 25]: 0 | Blackgrass plant response rating [2, 18]: 0 | Blackgrass plant response rating [2, 19]: 0 | Blackgrass plant response rating [2, 20]: 0 | Blackgrass plant response rating (0 to 10 scale) [2, 21]: 0 | Blackgrass plant response rating [2, 22]: 0 | Blackgrass plant response rating [2, 23]: 0 | Blackgrass plant response rating [2, 26]: 0 | Plant response rating, Blackgrass [2, 24]: 0 | Blackgrass plant response rating [2, 27]: 0 | Plant response rating, Blackgrass [2, 25]: 0 | B. signalgrass plant response rating [3, 17]: 0 | B. signalgrass plant response rating [3, 18]: 0 | B. signalgrass plant response rating [3, 19]: 0 | B. signalgrass plant response rating [3, 20]: 0 | B. signalgrass plant response rating (0 to 10 scale) [3, 21]: 0 | B. signalgrass plant response rating [3, 22]: 0 | B. signalgrass plant response rating [3, 23]: 0 | Plant response rating, B. signalgrass [3, 24]: 0 | B. signalgrass plant response rating ([3]; Rate 500 g/ha, Postemergence, scale of 0 to 10 where 0 is no effect and 10 is complete control): 0 | Plant response rating, B. signalgrass [3, 25]: 0 | Cocklebur plant response rating [4, 18]: 0 | Cocklebur plant response rating [4, 19]: 0 | Cocklebur plant response rating [4, 20]: 0 | Cocklebur plant response rating (0 to 10 scale) [4, 21]: 0 | Cocklebur plant response rating [4, 22]: 0 | Cocklebur plant response rating [4, 23]: 0 | Cocklebur plant response rating [4, 26]: 0 | Plant response rating, Cocklebur [4, 24]: 0 | Cocklebur plant response rating [4, 27]: 0 | Corn plant response rating [5, 18]: 0 | Corn plant response rating [5, 19]: 0 | Corn plant response rating [5, 20]: 0 | Corn plant response rating (0 to 10 scale) [5, 21]: 0 | Corn plant response rating [5, 22]: 0 | Corn plant response rating [5, 23]: 0 | Corn plant response rating [5, 26]: 0 | Plant response rating, Corn [5, 24]: 0 | Corn plant response rating [5, 27]: 0 | Plant response rating, Corn [5, 25]: 0 | Morningglory plant response rating [6, 18]: 0 | Morningglory plant response rating [6, 19]: 0 | Morningglory plant response rating [6, 20]: 0 | Morningglory plant response rating (0 to 10 scale) [6, 21]: 0 | Morningglory plant response rating [6, 22]: 0 | Morningglory plant response rating [6, 23]: 0 | Morningglory plant response rating [6, 26]: 0 | Plant response rating, Morningglory [6, 24]: 0 | Morningglory plant response rating [6, 27]: 0 | Plant response rating, Morningglory [6, 25]: 0 | Redroot pigweed plant response rating [7, 18]: 0 | Redroot pigweed plant response rating [7, 19]: 0 | Redroot pigweed plant response rating [7, 20]: 0 | Redroot pigweed plant response rating (0 to 10 scale) [7, 21]: 0 | Redroot pigweed plant response rating [7, 22]: 3 | Redroot pigweed plant response rating [7, 23]: 7 | Redroot pigweed plant response rating [7, 26]: 0 | Plant response rating, Redroot pigweed [7, 24]: 0 | Redroot pigweed plant response rating [7, 27]: 0 | Plant response rating, Redroot pigweed [7, 25]: 10 | Rape plant response rating [8, 18]: 0 | Rape plant response rating [8, 19]: 0 | Rape plant response rating [8, 20]: 0 | Rape plant response rating (0 to 10 scale) [8, 21]: 0 | Rape plant response rating [8, 22]: 0 | Rape plant response rating [8, 23]: 0 | Rape plant response rating [8, 26]: 0 | Plant response rating, Rape [8, 24]: 0 | Rape plant response rating [8, 27]: 0 | Plant response rating, Rape [8, 25]: 0 | Velvetleaf plant response rating [9, 18]: 0 | Velvetleaf plant response rating [9, 19]: 0 | Velvetleaf plant response rating [9, 20]: 0 | Velvetleaf plant response rating (0 to 10 scale) [9, 21]: 0 | Velvetleaf plant response rating [9, 22]: 0 | Velvetleaf plant response rating [9, 23]: 0 | Velvetleaf plant response rating [9, 26]: 0 | Plant response rating, Velvetleaf [9, 24]: 0 | Velvetleaf plant response rating [9, 27]: 0 | Plant response rating, Velvetleaf [9, 25]: 0 | Wheat plant response rating [10, 18]: 0 | Wheat plant response rating [10, 19]: 0 | Wheat plant response rating [10, 20]: 0 | Wheat plant response rating (0 to 10 scale) [10, 21]: 0 | Wheat plant response rating [10, 22]: 0 | Wheat plant response rating [10, 23]: 0 | Wheat plant response rating [10, 26]: 0 | Plant response rating, Wheat [10, 24]: 0 | Wheat plant response rating [10, 27]: 0 | Plant response rating, Wheat [10, 25]: 2 | Wild oats plant response rating [11, 18]: 0 | Wild oats plant response rating [11, 19]: 0 | Wild oats plant response rating [11, 20]: 0 | Wild oats plant response rating (0 to 10 scale) [11, 21]: 0 | Wild oats plant response rating [11, 22]: 0 | Wild oats plant response rating [11, 23]: 0 | Wild oats plant response rating [11, 26]: 0 | Plant response rating, Wild oats [11, 24]: 0 | Wild oats plant response rating [11, 27]: 0 | Plant response rating, Wild oats [11, 25]: 8 | Nutsedge plant response rating [12, 18]: 0 | Nutsedge plant response rating [12, 19]: 0 | Nutsedge plant response rating [12, 20]: 0 | Nutsedge plant response rating (0 to 10 scale) [12, 21]: 0 | Nutsedge plant response rating [12, 22]: 0 | Nutsedge plant response rating [12, 23]: 0 | Nutsedge plant response rating [12, 26]: 0 | Plant response rating, Nutsedge [12, 24]: 0 | Nutsedge plant response rating [12, 27]: 0 | Rice plant response rating [13, 28]: 0 | Rice plant response rating [13, 29]: 0 | Plant response rating, Rice [13, 30]: 0 | Rice plant response rating [13, 31]: 0 | S. Flatsedge plant response rating [14, 28]: 0 | S. Flatsedge plant response rating [14, 29]: 0 | Plant response rating, S. Flatsedge [14, 30]: 0 | S. Flatsedge plant response rating [14, 31]: 0 | Ducksalad plant response rating [15, 28]: 0 | Ducksalad plant response rating [15, 29]: 0 | Plant response rating, Ducksalad [15, 30]: 0 | Ducksalad plant response rating [15, 31]: 0 | Barnyardgrass plant response rating [16, 28]: 0 | Barnyardgrass plant response rating [16, 17]: 0 | Plant response rating, Barnyardgrass [16, 30]: 0 | Barnyardgrass plant response rating ([16]; Rate 500 g/ha, listed under Postemergence (flood test species), scale 0 to 10, 0 no effect, 10 complete control): 0
